Results: patent publication US20230414637A1 (priority 2020, published 2023)
Values after ≈ are worked out from the molar mass of the structure shown. Values joined by “and” are separate entries in the source; they are usually repeats but may differ in a detail not shown here. Equal entries are not always repeated. Where two headings read alike, the source gives them in different places.

Tests used:
[1] = tested on: SARS-CoV-2 in Huh-7 cells; conditions: infected liver Huh-7 cells, Mirabelli et al [60]; cited from earlier work
physchem [2] = conditions: 20 °C, pH 9.5, aqueous buffer, kinetic from dmso stock
physchem [3] = assay: physchem
[4] = Equilibrium dissolution of AK Sci niclosamide versus pH (supernatant concentration by UV/Vis at 333 nm)
SARS-COV-2 syncytia = conditions: Braga et al [18]; cited from earlier work
[5] = tested on: SARS-CoV-2 in Calu-3 cells; conditions: cited from earlier work
[6] = cited from earlier work
[7] = assay type: physicochemical; conditions: data and pHp theory
Source text: pH=pKa+Log10[Nic−ve]/[NicOH] Eqn 1
pHp=pKa+log(S−So)/So Eqn 4
So=the molar intrinsic solubility of the undissociated acid (NicOH), and S=the molar concentration of the salt form initially added.

[8] = tested on: SARS-CoV-2 in Vero 6 cells; conditions: cited from earlier work
[9] = [11]; cited from earlier work
physchem [10] = assay: physchem; remark: listed apart in the source
Description: The pKa is defined as the negative base-10 logarithm of the acid dissociation constant (Ka) of a solution). It is an important parameter to consider here because pKa and pH are equal when half of the acid has dissociated. […] Once the pKa is measured (or estimated) the well-known Henderson-Hasselbalch equation calculates the fractions of each species.

in vitro = conditions: human
Vero E6 cells = conditions: cited from earlier work
[11] = tested on: human airway epithelial cells; conditions: 300 uM
[12] = tested on: human airway epithelial cells; assay: cells; conditions: Epithelial cell, read-out: IC50 for cell viability and ATP
[13] = Supersaturated solution precipitation of niclosamide: amount in solution; conditions: pH 9.5, 3 mM/200 μM

Q: With `O=C(Nc1ccc([N+](=O)[O-])cc1Cl)c1cc(Cl)ccc1O` [Niclosamide, 5-Chloro-N-(2-chloro-4-nitrophenyl)-2-hydroxybenzamide] as the compound, how does the IC50 [1] read?
A: Its IC50 is 140 nM.

Q: What about the “factor of increase of fitted logarithmic dissolution rate” value (over pH range 8.62 to 9.44, nominal 0.5 mM-1 mM) of the same compound?
A: The value was “over 3 ×”.

Q: And the “fitted logarithmic dissolution rate, factor of ln(x)” value (pH 9.44 buffer, more optimized (standardized) stirring)?
A: Its value is 94.

Q: What about the solubility kinetic (physchem [2]) of the same compound?
A: Its solubility kinetic is 3000 µM (≈ 981 µg/mL).

Q: What about the solubility (physchem [3]; pH 6.4, aqueous buffer) of the same compound?
A: The solubility was 4.89 µM (≈ 1.6 µg/mL).

Q: What about the solubility (physchem [3]; pH 9.1, aqueous buffer) of the same compound?
A: The solubility was 336 µM (≈ 110 µg/mL).

Q: And the “amount of niclosamide in solution” value ([4]; pH 6-7 (tap water, saliva))?
A: Its value is roughly 2 µM.

Q: What about the “conversion of added powder at high pH” value ([4]; pH 9.7, 10.0 and 10.45 carbonate-bicarbonate buffer, 1 hr stirring) of the same compound?
A: The value was “converted to red crystalline micro-crystals”.

Q: What about the “effect on syncytia in vitro” value (SARS-COV-2 syncytia) of the same compound?
A: Its value is “protected against syncytia in vitro”.

Q: And the “IC100 for inhibiting viral replication (estimated from graph)” value ([5]; Calu-3 cells, Ko et al [34])?
A: Its value is 2 to 3 µM.

Q: And the IC50 ([5]; Calu-3 cells, Ko et al [34], read-out: IC50 for viral replication)?
A: The IC50 was 840 nM.

Q: And the “effect on viral replication” value ([5]; respiratory Calu-3 cells, 2.5 uM, Braga et al [18])?
A: Its value is “showed inhibition of viral replication”.

Q: And the solubility ([6]; pH 6.4)?
A: The solubility was 1.6 µg/mL (≈ 4.89 µM).

Q: And the solubility ([6]; pH 9.1)?
A: The solubility was 110 µg/mL (≈ 336 µM).

Q: What about the “pH at which a 30 uM niclosamide solution can be made” value [7] of the same compound?
A: The value was 8.16.

Q: And the “pH at which a 50 uM niclosamide solution can be made” value [7]?
A: Its value is 8.39.

Q: And the “pH at which a 200 uM niclosamide solution can be made” value [7]?
A: Its value is 9.01 and 8.92.

Q: And the “pH at which a 300 uM niclosamide solution can be made” value [7]?
A: Its value is 9.19 and 9.10.

Q: What about the “pH at which a 20 uM niclosamide solution can be made” value ([7]; pKa 7.12, So 2.53 uM) of the same compound?
A: The value was 7.96 and 7.98.

Q: And the IC50 ([8]; Vero 6 cells, Braga et al [18], read-out: IC50 for viral replication)?
A: The IC50 was 340 nM.

Q: What about the “concentration to completely prevent viral replication” value ([8]; Vero 6 cells, Brunaugh et al [91], including purported enhancement by lysozyme) of the same compound?
A: The value was 0.4 µM.

Q: And the “IC100, complete inhibition of viral replication” value ([8]; Vero 6 cells, Jeon et al [14])?
A: Its value is 1 µM.

Q: And the IC50 ([8]; Vero 6 cells, Jeon et al [14], read-out: IC50 for viral replication)?
A: Its IC50 is 280 nM.

Q: What about the IC50 ([8]; Vero E6 cells, Mostafa et al [29], read-out: IC50 for inhibiting viral replication) of the same compound?
A: Its IC50 is 160 nM.

Q: And the acute oral toxicity [9]?
A: The acute oral toxicity was greater than 1000 mg/kg.

Q: What about the pKa (physchem [10]) of the same compound?
A: The pKa was 6.52.

Q: And the viability at 300 uM (in vitro)?
A: The viability at 300 uM was 30%.

Q: And the CC50 (Vero E6 cells)?
A: Its CC50 is 205000 nM.

Q: What about the “concentration to which host cell viability extended” value (Vero E6 cells) of the same compound?
A: The value was greater than 100 µM.

Q: What about the “airway epithelial cells still alive upon washout” value [11] of the same compound?
A: The value was 17%.

Q: And the cell death ([11]; 6 hr)?
A: Its cell death is 83%.

Q: What about the IC50 [12] of the same compound?
A: Its IC50 is 20000 to 30000 nM.

Q: What about the supersaturation [13] of the same compound?
A: The supersaturation was roughly 15 times.
